Counter-ions that a name gives are not always drawn.
Each molecule was assayed against T1, pirin (Homo sapiens, UniProt O00625) (assay: Nano differential scanning fluorimetry (NanoDSF), thermal melting of pirin). Details: 10 μM pirin in PBS, 20 μM test compound.
T1 sequence (O00625 1-290): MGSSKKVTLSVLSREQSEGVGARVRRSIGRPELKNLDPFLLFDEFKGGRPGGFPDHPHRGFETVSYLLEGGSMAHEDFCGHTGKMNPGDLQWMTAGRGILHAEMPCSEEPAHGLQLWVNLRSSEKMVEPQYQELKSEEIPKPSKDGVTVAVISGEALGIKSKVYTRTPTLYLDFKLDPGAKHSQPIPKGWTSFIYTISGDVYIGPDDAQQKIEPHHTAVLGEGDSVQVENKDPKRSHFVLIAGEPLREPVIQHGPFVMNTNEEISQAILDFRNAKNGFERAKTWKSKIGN
Excerpt: NanoDSF is an advanced Differential Scanning Fluorimetry method for measuring protein stability using intrinsic tryptophan or tyrosine fluorescence. The fluorescence of the tryptophans and tyrosines in a protein is strongly dependent on their close surroundings. Changes in protein structure typically affect both the intensity and the emission wavelength especially of tryptophan fluorescence. By measuring fluorescence intensity at 330 nm and 350 nm, the change in fluorescence intensity and the shift of the fluorescence maximum upon unfolding can be used to detect thermal melting of the protein. Proteins are stabilized when associated with ligands and show a shift in their melting temperatures. NanoDSF has the advantages of being label free and observing the protein in solution.
A 10 μM solution of pirin in phosphate buffered saline, with or without 20 μM test compound, is subject to thermal denaturation under fluorescence monitoring using a Prometheus NT.48 instrument of NanoTemper Technologies. Unliganded pirin has a complex biphasic melting curve. […] If the test compound is a ligand to pirin, it adopts a single thermal transition some 10° C. above that of apopirin.

Compound	increase in the Tm of melting
Cc1cc2occ(CC(=O)Nc3nc(-c4ccc(CN)cc4)cs3)c2cc1C [Example 101, N-[4-[4-(Aminomethyl)phenyl]thiazol-2-yl]-2-(5,6-dimethylbenzofuran-3-yl)acetamide, hydrochloride salt]	approximately 11 °C

Each molecule was assayed on EGR1 promoter (assay: EGR1 reporter assay (luciferase) in genomically engineered HeLa cell line). Details: Homo sapiens; EGR1 reporter HeLa cells, luciferase activity after 24 hours with compound.
Type: cell-based
Excerpt: The compounds of the present invention can be characterized for their effect on expression of egr1 (early growth response protein 1) using an EGR1 reporter cell line.
The HeLa cell line was genetically modified to provide a simple, robust and highly reproducible cell-based assay reporting the activity of an endogenous EGR1 promoter. In brief, a construct encoding EGFP and luciferase proteins, separated by a self-cleaving P2A peptide was inserted, using CRISPR, immediately downstream (3′) to the promoter of endogenous EGR1. Upon treatment with compounds, cells express EGFP and luciferase from EGR1 promoter, which can be readily detected either in live cells using microscopy or cytometry, or through detection of luciferase activity in cell lysates.
To achieve stable genomic integration of an EGR1-promoter dual reporter, two plasmids were generated: one contained the reporter construct (eGFP-P2A-luciferase) flanked by homology arms that direct insertion into genomic DNA, by homologous recombination, of a break in genomic DNA generated by guide RNA targeted cleavage by Cas9 endonuclease. The gRNA expressing plasmid was based on px330 (56), into which a gRNA sequence that targets a break in gDNA close to the start codon of EGR1 was cloned. The left homology arm (encoding part of EGR1 promoter adjacent to its start codon) and right homology arm (encoding […] of start codon of EGR1) were cloned from gDNA using the following primers: […]
The present compounds can be tested, e.g. by using a HeLa cell line carrying an EGR1 reporter construct which allows for expression of luciferase and eGFP (enhanced GFP) controlled by the EGR1 promoter. For this reporter cells are seeded in the wells of a 384 well microtiter plate at a density of 2000 cells per well in 48 μl of DMEM supplemented with 4.5 g/l glucose, 2 mM glutamine and 10% FCS and are incubated for 24 hours at 37° C. with 5% CO2 and 95% humidity. Then, an eleven point 1:3 serial dilution of each test compound, from an initial concentration of 100 μM, is prepared in DMSO and the dilutions are added to the cells in a volume of 2 μl per well. The cells are incubated for a further 24 hours, after which the luciferase activity of each well is determined by addition of 25 μl of luciferase substrate reaction mixture (Britelite™ plus, Perkin Elmer) and measuring the bioluminescence light output (EnVision Xcite plate reader, PerkinElmer).
The compound of example 64 served as a positive control for this EGR1 reporter assay. The compound of example 64 had been identified in an initial high throughput screening campaign.

Compound	EC50
Cc1cc2occ(CC(=O)Nc3nc(-c4ccc(CN)cc4)cs3)c2cc1C [Example 101, N-[4-[4-(Aminomethyl)phenyl]thiazol-2-yl]-2-(5,6-dimethylbenzofuran-3-yl)acetamide, hydrochloride salt]	0.01 to 10 µM
COc1ccc2nc(NC(=O)Cc3coc4cc(C)ccc34)sc2c1 [Example 41, N-(6-Methoxy-1,3-benzothiazol-2-yl)-2-(6-methylbenzofuran-3-yl)acetamide]	0.01 to 10 µM
O=C(Cc1coc2cc3c(cc12)CCC3)Nc1ncc(C(F)(F)F)s1 [Example 63, 2-(6,7-Dihydro-5H-cyclopenta[f]benzofuran-3-yl)-N-[5-(trifluoromethyl)thiazol-2-yl]acetamide]	0.01 to 10 µM
COc1ccc2c(CC(=O)Nc3nc(-c4ccc(CCC(C)NC(C)=O)cc4)cs3)coc2c1 (stereo not shown) [Example 51, N-[4-[4-(3-Acetamidobutyl)phenyl]thiazol-2-yl]-2-(6-methoxybenzofuran-3-yl)acetamide]	0.01 to 10 µM
COc1ccc2c(CC(=O)Nc3ncc(C)s3)coc2c1C [Example 79, 2-(6-Methoxy-7-methyl-benzofuran-3-yl)-N-(5-methylthiazol-2-yl)acetamide]	0.01 to 10 µM
CCc1ccc2c(CC(=O)Nc3nc(-c4ccc(NC(C)=O)cc4)cs3)coc2c1 [Example 52, N-[4-(4-Acetamidophenyl)thiazol-2-yl]-2-(6-ethylbenzofuran-3-yl)acetamide]	0.01 to 10 µM
N#Cc1cnc(NC(=O)Cc2coc3c(Cl)c(Cl)ccc23)s1 [Example 73, N-(5-Cyanothiazol-2-yl)-2-(6,7-dichlorobenzofuran-3-yl)acetamide]	0.01 to 10 µM
COc1ccc(OC)c(-c2csc(NC(=O)Cc3coc4cc(C)ccc34)n2)c1 [Example 11, N-[4-(2,5-Dimethoxyphenyl)thiazol-2-yl]-2-(6-methylbenzofuran-3-yl)acetamide]	10 to 100 µM
Cc1cnc(NC(=O)Cc2coc3c(C)c(Cl)ccc23)s1 [Example 92, 2-(6-Chloro-7-methyl-benzofuran-3-yl)-N-(5-methylthiazol-2-yl)acetamide]	0.01 to 10 µM
COc1ccc(-c2csc(NC(=O)Cc3coc4cc(C)ccc34)n2)cc1OC [Example 50, N-[4-(3,4-Dimethoxyphenyl)thiazol-2-yl]-2-(6-methylbenzofuran-3-yl)acetamide]	0.01 to 10 µM
Cc1cnc(NC(=O)Cc2coc3c(C)cccc23)s1 [Example 10, 2-(7-Methylbenzofuran-3-yl)-N-(5-methylthiazol-2-yl)acetamide]	10 to 100 µM
COc1ccc2c(CC(=O)Nc3nc(-c4ccc5c(c4)CCO5)cs3)coc2c1 [Example 74, N-[4-(2,3-Dihydrobenzofuran-5-yl)thiazol-2-yl]-2-(6-methoxybenzofuran-3-yl)acetamide]	0.01 to 10 µM
Cc1cc2occ(CC(=O)Nc3nc(-c4ccccn4)cs3)c2cc1C [Example 9, 2-(5,6-Dimethylbenzofuran-3-yl)-N-[4-(2-pyridyl)thiazol-2-yl]acetamide]	10 to 100 µM
Cc1cnc(NC(=O)Cc2coc3c(Cl)c(Cl)ccc23)s1 [Example 75, 2-(6,7-Dichlorobenzofuran-3-yl)-N-(5-methylthiazol-2-yl)acetamide]	0.01 to 10 µM
CCc1ccc2c(CC(=O)Nc3nccs3)coc2c1 [Example 20, 2-(6-Ethylbenzofuran-3-yl)-N-thiazol-2-yl-acetamide]	10 to 100 µM
COc1ccc2c(CC(=O)Nc3nc(-c4ccncc4)cs3)coc2c1 [Example 25, 2-(6-Methoxybenzofuran-3-yl)-N-[4-(4-pyridyl)thiazol-2-yl]acetamide]	0.01 to 10 µM
O=C(Cc1coc2cc(Cl)ccc12)Nc1ncc(C(F)(F)F)[nH]1 [Example 38, 2-(6-Chlorobenzofuran-3-yl)-N-[5-(trifluoromethyl)-1H-imidazol-2-yl]acetamide]	0.01 to 10 µM
Cc1ccc2c(CC(=O)Nc3ncc(C(F)(F)F)s3)coc2c1C [Example 99, 2-(6,7-Dimethylbenzofuran-3-yl)-N-[5-(trifluoromethyl)thiazol-2-yl]acetamide]	0.01 to 10 µM
Cc1ccc2c(CC(=O)Nc3nc(C)cs3)coc2c1 [Example 33, 2-(6-Methylbenzofuran-3-yl)-N-(4-methylthiazol-2-yl)acetamide]	0.01 to 10 µM
Cc1cc2occ(CC(=O)N(c3ccc(F)cc3)c3nc4ccccc4s3)c2cc1C(C)C [Example 16, N-(1,3-Benzothiazol-2-yl)-N-(4-fluorophenyl)-2-(5-isopropyl-6-methyl-benzofuran-3-yl)acetamide]	10 to 100 µM
Cc1cnc(NC(=O)Cc2coc3c(C)c(C)ccc23)[nH]1 [Example 22, 2-(6,7-Dimethylbenzofuran-3-yl)-N-(5-methyl-1H-imidazol-2-yl)acetamide]	10 to 100 µM
CCc1cnc(NC(=O)Cc2coc3cc4c(cc23)CCC4)s1 [Example 84, 2-(6,7-Dihydro-5H-cyclopenta[f]benzofuran-3-yl)-N-(5-ethylthiazol-2-yl)acetamide]	0.01 to 10 µM
CCOC(=O)c1csc(NC(=O)Cc2coc3cc(C)ccc23)n1 [Example 13, Ethyl 2-[[2-(6-methylbenzofuran-3-yl)acetyl]amino]thiazole-4-carboxylate]	10 to 100 µM
Cc1cnc(NC(=O)Cc2coc3cc(Cl)ccc23)s1 [Example 15, 2-(6-Chlorobenzofuran-3-yl)-N-(5-methylthiazol-2-yl)acetamide]	10 to 100 µM
COc1ccc2c(CC(=O)Nc3nc4c(s3)CCC4)coc2c1 [Example 54, N-(5,6-Dihydro-4H-cyclopenta[d]thiazol-2-yl)-2-(6-methoxybenzofuran-3-yl)acetamide]	0.01 to 10 µM
O=C(Cc1coc2cc3c(cc12)CCC3)NCCNc1ncc(CO)s1 [Example 80, 2-(6,7-Dihydro-5H-cyclopenta[f]benzofuran-3-yl)-N-[2-[[5-(hydroxymethyl)thiazol-2-yl]amino]ethyl]acetamide]	0.01 to 10 µM
CCc1ccc2c(CC(=O)Nc3nc(-c4ccccn4)cs3)coc2c1 [Example 5, 2-(6-Ethylbenzofuran-3-yl)-N-[4-(2-pyridyl)thiazol-2-yl]acetamide]	10 to 100 µM
COc1ccc2c(CC(=O)Nc3nc(-c4ccccn4)cs3)coc2c1 [Example 26, 2-(6-Methoxybenzofuran-3-yl)-N-[4-(2-pyridyl)thiazol-2-yl]acetamide]	0.01 to 10 µM
Cc1ccc2c(CC(=O)Nc3ncc(C(F)(F)F)s3)coc2c1Cl [Example 83, 2-(7-Chloro-6-methyl-benzofuran-3-yl)-N-[5-(trifluoromethyl)thiazol-2-yl]acetamide]	0.01 to 10 µM
COc1ccc2c(CC(=O)Nc3ncc(C)s3)coc2c1 [Example 43, 2-(6-Methoxybenzofuran-3-yl)-N-(5-methylthiazol-2-yl)acetamide]	0.01 to 10 µM

Source: patent publication US20200223837A1, “BENZOFURAN AMIDES AND HETEROAROMATIC ANALOGUES THEREOF FOR USE IN THERAPY” (European Molecular Biology Laboratory, priority 2017, published 2020)
